# Test results reported in the supplement of paper PMC4862054.
# Test system: CAL-85-1
# Experiment: normalised viability (% of control), CellTiter-Blue; higher = more viable cells (about 100 = DMSO control)
# Conditions: incubation time: 72 h
# Description: (§1)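 DSRT, CellTiter-Blue viability, 72 h incubation. Signal is normalised to DMSO and benzethonium chloride controls. Value is the normalised response at dose 8.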
row,SMILES,normalised viability [%]
1,CC[C@@]1(O)C(=O)OCc2c1cc1n(c2=O)Cc2cc3c(CN(C)C)c(O)ccc3nc2-1 [Topotecan] (300 nM),66.9

# Test system: MDA-MB-453
# Experiment: as above
# Conditions: incubation time: 72 h
# Description: as §1
row,SMILES,normalised viability [%]
1,CC[C@@]1(O)C(=O)OCc2c1cc1n(c2=O)Cc2cc3c(CN(C)C)c(O)ccc3nc2-1 [Topotecan] (300 nM),69.3

# Test system: CAL-148
# Experiment: as above
# Conditions: incubation time: 72 h
# Description: as §1
row,SMILES,normalised viability [%]
1,CC[C@@]1(O)C(=O)OCc2c1cc1n(c2=O)Cc2cc3c(CN(C)C)c(O)ccc3nc2-1 [Topotecan] (300 nM),31.4

# Test system: HDQ-P1
# Experiment: as above
# Conditions: incubation time: 72 h
# Description: as §1
row,SMILES,normalised viability [%]
1,CC[C@@]1(O)C(=O)OCc2c1cc1n(c2=O)Cc2cc3c(CN(C)C)c(O)ccc3nc2-1 [Topotecan] (300 nM),87.8

# Test system: CAL-51
# Experiment: as above
# Conditions: incubation time: 72 h
# Description: as §1
row,SMILES,normalised viability [%]
1,CC[C@@]1(O)C(=O)OCc2c1cc1n(c2=O)Cc2cc3c(CN(C)C)c(O)ccc3nc2-1 [Topotecan] (300 nM),66.2

# Test system: DU-4475
# Experiment: as above
# Conditions: incubation time: 72 h
# Description: as §1
row,SMILES,normalised viability [%]
1,CC[C@@]1(O)C(=O)OCc2c1cc1n(c2=O)Cc2cc3c(CN(C)C)c(O)ccc3nc2-1 [Topotecan] (300 nM),47.5

# Test system: CAL-85-1
# Experiment: as above
# Conditions: incubation time: 72 h
# Remark: another data set of the same source
# Description: (§2)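 DSRT, CellTiter-Blue viability, 72 h incubation. Signal is normalised to DMSO and benzethonium chloride controls. Value is the normalised response at dose 9.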
row,SMILES,normalised viability [%]
1,Cc1cccc(-c2nn3c(c2-c2ccnc4ccc(C(N)=O)cc24)CCC3)n1 (1000 nM),101
2,Cn1cc(CNCC2CCN(c3ncc(C(=O)NO)cn3)CC2)c2ccccc21 (1000 nM),3.26
3,O=C(NC[C@H](O)CO)c1ccncc1Nc1ccc(I)cc1F (10000 nM),39.9
4,Nc1nc(=O)c2c([nH]1)NCC(CNc1ccc(C(=O)N[C@@H](CCC(=O)O)C(=O)O)cc1)N2C=O (mixture of isomers) [Folinic acid] (990 nM),98
5,O=C(Nc1c[nH]nc1-c1nc2ccc(CN3CCOCC3)cc2[nH]1)NC1CC1 [AT9283] (10000 nM),-0.09
6,O=S(=O)(c1cccc2cnccc12)N1CCCNCC1 [Fasudil] (10000 nM),99.3
7,CS(=O)(=O)N1CCN(Cc2cc3nc(-c4cccc5[nH]ncc45)nc(N4CCOCC4)c3s2)CC1 [GDC-0941] (10000 nM),13.3
8,c1cc(CN2CCCNCCNCCCNCC2)ccc1CN1CCCNCCNCCCNCC1 [Plerixafor] (2500 nM),97

# Test system: MDA-MB-453
# Experiment: as above
# Conditions: incubation time: 72 h
# Remark: another data set of the same source
# Description: as §2
row,SMILES,normalised viability [%]
1,Cc1cccc(-c2nn3c(c2-c2ccnc4ccc(C(N)=O)cc24)CCC3)n1 (1000 nM),104
2,Cn1cc(CNCC2CCN(c3ncc(C(=O)NO)cn3)CC2)c2ccccc21 (1000 nM),2.12
3,O=C(NC[C@H](O)CO)c1ccncc1Nc1ccc(I)cc1F (10000 nM),37.1
4,Nc1nc(=O)c2c([nH]1)NCC(CNc1ccc(C(=O)N[C@@H](CCC(=O)O)C(=O)O)cc1)N2C=O (mixture of isomers) [Folinic acid] (990 nM),103
5,O=C(Nc1c[nH]nc1-c1nc2ccc(CN3CCOCC3)cc2[nH]1)NC1CC1 [AT9283] (10000 nM),11.2
6,O=S(=O)(c1cccc2cnccc12)N1CCCNCC1 [Fasudil] (10000 nM),57.8
7,CS(=O)(=O)N1CCN(Cc2cc3nc(-c4cccc5[nH]ncc45)nc(N4CCOCC4)c3s2)CC1 [GDC-0941] (10000 nM),5.58
8,c1cc(CN2CCCNCCNCCCNCC2)ccc1CN1CCCNCCNCCCNCC1 [Plerixafor] (2500 nM),103

# Test system: CAL-148
# Experiment: as above
# Conditions: incubation time: 72 h
# Remark: another data set of the same source
# Description: as §2
row,SMILES,normalised viability [%]
1,Cc1cccc(-c2nn3c(c2-c2ccnc4ccc(C(N)=O)cc24)CCC3)n1 (1000 nM),79.7
2,Cn1cc(CNCC2CCN(c3ncc(C(=O)NO)cn3)CC2)c2ccccc21 (1000 nM),0.7
3,O=C(NC[C@H](O)CO)c1ccncc1Nc1ccc(I)cc1F (10000 nM),70.5
4,Nc1nc(=O)c2c([nH]1)NCC(CNc1ccc(C(=O)N[C@@H](CCC(=O)O)C(=O)O)cc1)N2C=O (mixture of isomers) [Folinic acid] (990 nM),105
5,O=C(Nc1c[nH]nc1-c1nc2ccc(CN3CCOCC3)cc2[nH]1)NC1CC1 [AT9283] (10000 nM),1.55
6,O=S(=O)(c1cccc2cnccc12)N1CCCNCC1 [Fasudil] (10000 nM),82.3
7,CS(=O)(=O)N1CCN(Cc2cc3nc(-c4cccc5[nH]ncc45)nc(N4CCOCC4)c3s2)CC1 [GDC-0941] (10000 nM),0.59
8,c1cc(CN2CCCNCCNCCCNCC2)ccc1CN1CCCNCCNCCCNCC1 [Plerixafor] (2500 nM),83.5

# Test system: HDQ-P1
# Experiment: as above
# Conditions: incubation time: 72 h
# Remark: another data set of the same source
# Description: as §2
row,SMILES,normalised viability [%]
1,Cc1cccc(-c2nn3c(c2-c2ccnc4ccc(C(N)=O)cc24)CCC3)n1 (1000 nM),133
2,Cn1cc(CNCC2CCN(c3ncc(C(=O)NO)cn3)CC2)c2ccccc21 (1000 nM),18.9
3,O=C(NC[C@H](O)CO)c1ccncc1Nc1ccc(I)cc1F (10000 nM),46.3
4,Nc1nc(=O)c2c([nH]1)NCC(CNc1ccc(C(=O)N[C@@H](CCC(=O)O)C(=O)O)cc1)N2C=O (mixture of isomers) [Folinic acid] (990 nM),86.9
5,O=C(Nc1c[nH]nc1-c1nc2ccc(CN3CCOCC3)cc2[nH]1)NC1CC1 [AT9283] (10000 nM),7.44
6,O=S(=O)(c1cccc2cnccc12)N1CCCNCC1 [Fasudil] (10000 nM),180
7,CS(=O)(=O)N1CCN(Cc2cc3nc(-c4cccc5[nH]ncc45)nc(N4CCOCC4)c3s2)CC1 [GDC-0941] (10000 nM),12.8
8,c1cc(CN2CCCNCCNCCCNCC2)ccc1CN1CCCNCCNCCCNCC1 [Plerixafor] (2500 nM),125

# Test system: CAL-51
# Experiment: as above
# Conditions: incubation time: 72 h
# Remark: another data set of the same source
# Description: as §2
row,SMILES,normalised viability [%]
1,Cc1cccc(-c2nn3c(c2-c2ccnc4ccc(C(N)=O)cc24)CCC3)n1 (1000 nM),103
2,Cn1cc(CNCC2CCN(c3ncc(C(=O)NO)cn3)CC2)c2ccccc21 (1000 nM),2.6
3,O=C(NC[C@H](O)CO)c1ccncc1Nc1ccc(I)cc1F (10000 nM),65
4,Nc1nc(=O)c2c([nH]1)NCC(CNc1ccc(C(=O)N[C@@H](CCC(=O)O)C(=O)O)cc1)N2C=O (mixture of isomers) [Folinic acid] (990 nM),94.1
5,O=C(Nc1c[nH]nc1-c1nc2ccc(CN3CCOCC3)cc2[nH]1)NC1CC1 [AT9283] (10000 nM),4.48
6,O=S(=O)(c1cccc2cnccc12)N1CCCNCC1 [Fasudil] (10000 nM),109
7,CS(=O)(=O)N1CCN(Cc2cc3nc(-c4cccc5[nH]ncc45)nc(N4CCOCC4)c3s2)CC1 [GDC-0941] (10000 nM),2.35
8,c1cc(CN2CCCNCCNCCCNCC2)ccc1CN1CCCNCCNCCCNCC1 [Plerixafor] (2500 nM),111

# Test system: DU-4475
# Experiment: as above
# Conditions: incubation time: 72 h
# Remark: another data set of the same source
# Description: as §2
row,SMILES,normalised viability [%]
1,Cc1cccc(-c2nn3c(c2-c2ccnc4ccc(C(N)=O)cc24)CCC3)n1 (1000 nM),124
2,Cn1cc(CNCC2CCN(c3ncc(C(=O)NO)cn3)CC2)c2ccccc21 (1000 nM),3.03
3,O=C(NC[C@H](O)CO)c1ccncc1Nc1ccc(I)cc1F (10000 nM),-0.44
4,Nc1nc(=O)c2c([nH]1)NCC(CNc1ccc(C(=O)N[C@@H](CCC(=O)O)C(=O)O)cc1)N2C=O (mixture of isomers) [Folinic acid] (990 nM),115
5,O=C(Nc1c[nH]nc1-c1nc2ccc(CN3CCOCC3)cc2[nH]1)NC1CC1 [AT9283] (10000 nM),-1.62
6,O=S(=O)(c1cccc2cnccc12)N1CCCNCC1 [Fasudil] (10000 nM),101
7,CS(=O)(=O)N1CCN(Cc2cc3nc(-c4cccc5[nH]ncc45)nc(N4CCOCC4)c3s2)CC1 [GDC-0941] (10000 nM),-0.76
8,c1cc(CN2CCCNCCNCCCNCC2)ccc1CN1CCCNCCNCCCNCC1 [Plerixafor] (2500 nM),99.3
